In article PMC7251097, “Aspartate/asparagine-β-hydroxylase: a high-throughput mass spectrometric assay for discovery of small molecule inhibitors” (Scientific Reports, 2020):
Counter-ions that a name gives are not always drawn. Like-named read-outs stand apart in the source and are kept apart here.

Biological target: T1, His6-AspH315–758 (human aspartate/asparagine-β-hydroxylase, AspH) (Homo sapiens, UniProt Q12797)
T1 construct: N-Terminally His6-tagged human AspH315–758 (His6-AspH315–758) was produced in E. coli BL21 (DE3) cells; made in house; host or cells: E. coli BL21 (DE3), pET-28a(+) vector
T1 sequence (Q12797 315-758): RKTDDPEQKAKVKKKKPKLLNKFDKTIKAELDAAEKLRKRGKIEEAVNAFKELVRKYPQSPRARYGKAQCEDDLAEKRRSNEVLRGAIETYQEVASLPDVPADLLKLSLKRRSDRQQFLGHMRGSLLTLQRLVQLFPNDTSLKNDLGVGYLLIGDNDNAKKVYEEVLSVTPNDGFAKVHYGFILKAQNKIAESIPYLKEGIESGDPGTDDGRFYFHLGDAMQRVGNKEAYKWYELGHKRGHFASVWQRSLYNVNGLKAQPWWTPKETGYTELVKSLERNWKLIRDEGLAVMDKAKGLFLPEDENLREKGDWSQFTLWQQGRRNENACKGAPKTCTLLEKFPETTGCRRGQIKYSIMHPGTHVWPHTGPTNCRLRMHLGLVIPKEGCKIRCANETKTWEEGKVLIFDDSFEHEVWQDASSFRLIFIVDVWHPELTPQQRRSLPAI
Assay: SPE-MS AspH inhibition assay (LOPAC screen at fixed 20 μM and IC50 dose-response), hydroxylation of cyclic peptide hFX-CP101–119
Type: biochemical
Conditions: for IC50: read-out: IC50

[1] = LOPAC compound at fixed 20 uM, plate 1, normalised to DMSO and 2,4-PDCA controls
[2] = LOPAC compound at fixed 20 uM, substrate conversion, plate 1
[3] = LOPAC compound at 20uM, plate 3, conversion of substrate peptide
[4] = LOPAC Plate 4, compound at 20 uM, substrate conversion
[5] = LOPAC Plate 4, compound at 20 uM, read-out: % inhibition
[6] = LOPAC compound at 20uM, plate 2, conversion of substrate peptide
[7] = LOPAC Plate 4, compound at 20 uM

NC[C@H](O)c1ccc(O)c(O)c1.O=C(O)C(O)C(O)C(=O)O [L(-)-Norepinephrine bitartrate]
Plate 1 (% inhibition) [1]: 89.51% | Plate 1 (% conversion) [2]: 5.81%

Cl.NCCS [Cysteamine hydrochloride]
Plate 3 (% conversion) [3]: 40.01%

N=C(NCCC[C@H](N)C(=O)O)N[N+](=O)[O-] [NG-Nitro-L-arginine]
Plate 3 (% conversion) [3]: 40.79%

CCCCCCCCCCCCCCSCC(=O)O [Tetradecylthioacetic acid]
% conversion [4]: 26.50% | inhibition at 20 µM [5]: 29.2%

O=c1cc(O)cc(/C=C/c2ccc(O)c(O)c2)o1 [Hispidin, reference compound]
Plate 2 (% conversion) [6]: 3.05% | inhibition at 20 µM (LOPAC compound at 20uM, plate 2, normalised to DMSO and 2,4-PDCA controls, read-out: Plate 2 (% inhibition)): 98.3%

CN1CC[C@]2(CCN3CCc4c(oc5ccccc45)[C@@H]3C2)N(C)C1=O.Cl [MK-912]
Plate 3 (% conversion) [3]: 38.39%

CC[C@H]1OC(=O)[C@H](C)[C@@H](O[C@H]2C[C@@](C)(OC)[C@@H](O)[C@H](C)O2)[C@H](C)[C@@H](O[C@@H]2O[C@H](C)C[C@H](NC)[C@H]2O)[C@](C)(O)C[C@@H](C)CN(C)[C@H](C)[C@@H](O)[C@]1(C)O [CP-64434]
Plate 5 (% conversion): 37.11% | Plate 5 (% inhibition): -2.34%

OC[C@H]1O[C@@H](n2cnc3c(N[C@H]4CCC[C@@H]4O)ncnc32)[C@H](O)[C@@H]1O [GR 79236X]
Plate 1 (% inhibition) [1]: -7.17% | Plate 1 (% conversion) [2]: 38.28%

O=C(Nc1ccc2c(c1)CCN(Cc1ncn[nH]1)C2)c1ccccc1-c1ccc(C(F)(F)F)cc1 [CP-346086]
Plate 5 (% conversion): 46.02% | Plate 5 (% inhibition): -28.53%

CCN(CC)CCOC(=O)c1cc(Cl)c(N)cc1OC.Cl [SDZ-205,557 hydrochloride]
% inhibition [7]: -2.39% | % conversion [4]: 37.29%

NS(=O)(=O)c1cccc2c1c([N+](=O)[O-])cc1nc([O-])c([O-])nc12.[Na+].[Na+] [NBQX disodium]
Plate 3 (% conversion) [3]: 7.99%

COc1cc2nc(N3CCCN(C)CC3)nc(NC3CCN(Cc4ccccc4)CC3)c2cc1OC [BIX 01294 trihydrochloride hydrate]
% inhibition [7]: -9.31% | % conversion [4]: 39.65%

NCCCNCCCCNCCCN [Spermine tetrahydrochloride]
% conversion [4]: 39.42% | inhibition at 20 µM [5]: -8.64%

NCCCP(=O)(O)O [3-Aminopropylphosphonic acid]
Plate 1 (% conversion): 37.53% | Plate 1 (% inhibition): -4.94%

C[N+](C)(C)CC(=O)O [Betaine hydrochloride]
Plate 1 (% inhibition) [1]: -4.44% | Plate 1 (% conversion) [2]: 37.36%

O=C1Nc2ccccc2/C1=C1/Nc2ccccc2/C1=N\O [Indirubin-3-oxime]
Plate 1 (% inhibition) [1]: 11.42% | Plate 1 (% conversion) [2]: 32.04%

OC[C@H]1OC(n2cnc3ccccc32)[C@H](O)[C@@H]1O (stereo partly drawn) [D-ribofuranosylbenzimidazole]
Plate 2 (% conversion) [6]: 37.89% | Plate 2 (% inhibition) (LOPAC compound at 20uM, plate 2, normalised to DMSO and 2,4-PDCA controls): -5.77%

CC(C)(C)OC(=O)NC1[C@H]2CNC[C@@H]12 (some centres unmarked) [CP-101537]
Plate 3 (% conversion): 33.25% | Plate 5 (% conversion): 36.34% | Plate 5 (% inhibition): -0.06%

CC(=O)OC[C@H]1O[C@@H]([S-])[C@H](OC(C)=O)[C@@H](OC(C)=O)[C@@H]1OC(C)=O.CCP(CC)CC.[Au+] [Auranofin]
% conversion: 18.61% | % inhibition (20 µM): 52.32%

CCCN1C[C@H](CSC)C[C@@H]2c3cccc4[nH]cc(c34)C[C@H]21 [Pergolide methanesulfonate]
% conversion [4]: 40.48% | inhibition at 20 µM [5]: -11.8%

N=C(N)c1ccccc1 [Benzamidine hydrochloride]
Plate 1 (% inhibition) [1]: -1.42% | Plate 1 (% conversion) [2]: 36.35%

Cl.NC1(C(=O)O)CCCCC1
Plate 1 (% inhibition) [1]: 1.04% | Plate 1 (% conversion) [2]: 35.52%

CO[C@H]1O[C@@H]2O[C@@]3(C)CC[C@H]4[C@H](C)CC[C@@H]([C@H]1C)[C@@]24OO3 [Artemether]
Plate 1 (% inhibition) [1]: -9.16% | Plate 1 (% conversion) [2]: 38.95%

CC(=O)NNC(=O)N1Cc2ccccc2Oc2ccc(Cl)cc21 [SC 19220]
% conversion [4]: 29.06%

CN(C)c1nc(N)c(C(=O)NC(=N)N)nc1Cl [5-(N,N-Dimethyl)amiloride hydrochloride]
Plate 1 (% inhibition) [1]: -6.54% | Plate 1 (% conversion) [2]: 38.07%

Cl.Cl.c1ccc(CCCN2CCN(CCOC(c3ccccc3)c3ccccc3)CC2)cc1 [GBR-12935 dihydrochloride]
Plate 2 (% conversion): 46.64% | Plate 2 (% inhibition) (20 µM): -31.91%

O=C1Nc2ccc(I)cc2/C1=C/c1cc(Br)c(O)c(Br)c1 [GW5074, reference compound]
Inhibition at 20 µM [%]: 101.1% | IC50 (pH 7.5): 2480 ± 140 nM

CCN(CC)CCOc1ccc(Nc2ncc3cc(-c4c(Cl)cccc4Cl)c(=O)n(C)c3n2)cc1.O [PD-166285 hydrate]
% conversion: 50.97% | % inhibition (20 µM): -42.48%

CN(C)CCOC(=O)COc1ccc(Cl)cc1 [Centrophenoxine hydrochloride]
Plate 1 (% conversion): 36.66% | Plate 1 (% inhibition): -2.35%

Cn1c(=O)c2[nH]cnc2n(C)c1=O.Cn1c(=O)c2[nH]cnc2n(C)c1=O.NCCN [Aminophylline ethylenediamine]
Plate 1 (% inhibition) [1]: -9.00% | Plate 1 (% conversion) [2]: 38.90%

NC(CO)C(=O)NNCc1ccc(O)c(O)c1O (centres unmarked) [benserazide, reference compound]
IC50 (50 nM His6-AspH315–758, 1.0 μM hFX-CP101–119, 3 μM 2OG, 2 μM Fe(II), 50 mM HEPES pH 7.5, 20 °C, mean ± SD, n = 2 (2,4-PDCA n = 10)): 3490 ± 760 nM | inhibition at 20 µM (AspH activity, fixed compound concentration 20 μM, initial LOPAC screen, 0.5%v/v DMSO, read-out: Inhibition at 20 µM [%]): 95.2% | Plate 1 (% inhibition) [1]: 95.21% | Plate 1 (% conversion) [2]: 3.90%

CC[N+](CC)(CC)CC [Tetraethylammonium chloride]
% conversion: 26.96%

O=C1C=CC(=O)C=C1 [p-Benzoquinone, reference compound]
Inhibition at 20 µM [%]: 99.3% | Plate 1 (% conversion): 2.52% | Plate 1 (% inhibition): 99.30%

CN(c1ccccc1CNc1nc(Nc2ccc3c(c2)CC(=O)N3)ncc1C(F)(F)F)S(C)(=O)=O.O [PF-431396 hydrate]
Plate 1 (% inhibition) [1]: -15.66% | Plate 1 (% conversion) [2]: 41.13%

CCc1cccc(N(C)C(N)=Nc2cccc3ccccc23)c1 [CNS-1102]
Plate 1 (% inhibition) [1]: -9.21% | Plate 1 (% conversion) [2]: 38.96%

Cc1ccc(S(=O)(=O)N[C@@H](CCCCN)C(=O)CCl)cc1.Cl
% conversion: 33.91%

O=c1[nH]c2cc(C(F)(F)F)ccc2n1-c1cc(C(F)(F)F)ccc1O [NS-1619]
Plate 3 (% conversion) [3]: 36.56%

CCCCCCNC(=O)n1cc(F)c(=O)[nH]c1=O [Carmofur]
% conversion: 37.69% | inhibition at 20 µM [5]: -3.58%

Cl.Cl.Fc1ccc([C@@H]2CCNC[C@H]2COc2ccc3c(c2)OCO3)cc1.Fc1ccc([C@@H]2CCNC[C@H]2COc2ccc3c(c2)OCO3)cc1.O
Plate 1 (% inhibition) [1]: -22.48% | Plate 1 (% conversion) [2]: 43.42%

CN1CCc2cccc3c2[C@H]1Cc1ccc(O)c(O)c1-3 [Apomorphine hydrochloride hemihydrate]
Plate 1 (% inhibition) [1]: 80.27% | Plate 1 (% conversion) [2]: 8.92%

CCN1C[C@]2(COC)[C@H](O)C[C@H](OC)[C@@]34[C@@H]5C[C@@]6(O)[C@H](OC(=O)c7ccccc7)[C@@H]5[C@@](OC(C)=O)([C@@H]([C@H](OC)[C@H]23)[C@@H]14)[C@@H](O)[C@@H]6OC [Aconitine]
Plate 1 (% conversion): 40.69% | Plate 1 (% inhibition): -14.35%

N[C@H](C(=O)O)[C@H](O)c1ccc(O)c(O)c1 [L-DOPS]
Plate 3 (% conversion) [3]: 7.53%

Cc1cc2c(C(C)C)c(O)c(O)c(C=O)c2c(O)c1-c1c(C)cc2c(C(C)C)c(O)c(O)c(C=O)c2c1O [Gossypol]
Plate 3 (% conversion): 4.73%
